Laboratory results taken from article PMC9229919, “4-Aminoquinoline-Based Adamantanes as Potential Anticholinesterase Agents in Symptomatic Treatment of Alzheimer’s Disease” (Pharmaceutics, 2022).
Read-outs that look alike come from different tables or passages of the source.

Legend:
purified human BChE = target: T1, purified human BChE (Homo sapiens, UniProt P06276); assay: biochemical; format: biochemical
T1 construct: possibly also a gift of Dr Florian Nachon (the sentence is ambiguous)
Experimental: (§1) Acetylthiocholine (ATCh) and 5,5′-dithiobis(2-nitrobenzoic acid) (DTNB) were purchased from Sigma-Aldrich, St. Louis, MO, USA. ATCh was dissolved in water and DTNB in 0.1 M sodium phosphate buffer (pH 7.4). The 4-aminoquinilines were dissolved in DMSO and all further dilutions were made in water.
(§2) The sources of AChE and BChE were purified human BChE and recombinant human AChE that was kindly provided by Dr Florian Nachon (Département de Toxicologie, Armed Forces Biomedical Research Institute, Brétigny-sur-Orge, France). […] The enzymes were diluted in sodium phosphate buffer 0.1 M (pH 7.4) containing 0.1% BSA.
(§3) Enzyme activities were measured spectrophotometrically using a slightly modified Ellman method, as described earlier. […] At least three inhibitor concentrations for each substrate concentration were used in at least three experiments. The apparent inhibition constant (Ki,app) was calculated using the Hunter–Downs Equation and linear regression analysis:(1) Ki,app=vi·i/v0−vi=Ki+Ki/KS·s where the y-intercept determines the enzyme-inhibitor dissociation constant (Ki), while the x-intercept determines the enzyme-substrate dissociation constant, KS.
(§4) The Hunter–Downs Equation was used under the assumption that the substrate, due to relatively low concentrations used in experiments, would bind only to the catalytic site of the enzymes, while the inhibitors would bind to both CAS and/or PAs. This allowed the type of inhibition to be determined from Ki,app vs. substrate concentration ([S]) dependency on Hunter–Downs plot.
(§5) The final content of DMSO in the measurements was up to 0.2%. […] The measurements were performed at 25 °C on a Tecan Infinite M200Pro plate reader (Tecan Austria GmbH, Salzburg, Austria).

recombinant human AChE = target: T2, recombinant human AChE (Homo sapiens, UniProt P22303); assay: biochemical; format: biochemical; details: for IS: IS = Ki(BChE)/Ki(AChE), IS > 1 selective to AChE
T2 construct: gift of Dr Florian Nachon (Armed Forces Biomedical Research Institute, Brétigny-sur-Orge, France)
Experimental: as §1, §2, §3, §4, §5

[1] = Ferric reducing antioxidant power (FRAP) assay; details: mean ± standard error of three experiments;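 also: expressed as µM Fe2+ equivalents from an FeSO4·7H2O standard curve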
Experimental: . All the chemicals were purchased from Sigma-Aldrich (St. Louis, MO, USA), except for tripyridyltriazine (TPTZ) (Fluka, Buchs, Switzerland) and FeCl3 (Kemika, Zagreb, Croatia). The FRAP assay was assessed according to Benzie and Strain [53] with slight procedure adjustments for 96-well microplates. The method is based on the reduction of the ferric-tripyridyltriazine (Fe^3+-TPTZ) complex to ferrous tripyridyltriazine (Fe^2+-TPTZ) by the action of electron-donating compounds at a low pH. Briefly, the FRAP reagent was prepared by mixing acetate buffer (300 mM, pH 3.6), a solution of 10 mM TPTZ in 40 mM HCl, and 20 mM FeCl3 at 10:1:1 (v/v/v). Then, 240 μL of FRAP reagent and 10 μL of sample solution were added to a 96-well plate and incubated at 37 °C for 60 min. The absorbance was measured at 593 nm using a microplate reader (Infinite M200PRO, Tecan Austria GmbH, Salzburg, Austria) against a blank. The reducing capacity was determined for 10 and 100 µM compound concentrations. […]. All measurements were performed in three independent experiments. FRAP values, denominating the reduction of ferric-tripyridyltriazine (Fe^3+-TPTZ) to ferrous tripyridyltriazine (Fe^2+-TPTZ) by 4-aminoquinolines were calculated based on a standard curve obtained using […].

[2] = Reverse-phase thin-layer chromatographic lipophilicity (RF, RM0); format: physicochemical; details: for RM0: intercept of RM = RM0 + bC; for b: slope of RM = RM0 + bC; for RF, Methanol/Water/Hydrochloric acid (conc.), mobile phase I / RF, Dioxane/Water/Hydrochloric acid (conc.), mobile phase II / RF, Methanol/Water/Hydrochloric acid (conc.), mobile phase II / RF, Acetone/Water/Hydrochloric acid (conc.), mobile phase III / RF, Dioxane/Water/Hydrochloric acid (conc.), mobile phase III / RF, Methanol/Water/Hydrochloric acid (conc.), mobile phase III / RF, Dioxane/Water/Hydrochloric acid (conc.), mobile phase IV / RF, Acetone/Water/Hydrochloric acid (conc.), mobile phase IV / RF, Methanol/Water/Hydrochloric acid (conc.), mobile phase IV / RF, Acetone/Water/Hydrochloric acid (conc.), mobile phase IX / RF, Methanol/Water/Hydrochloric acid (conc.), mobile phase IX / RF, Dioxane/Water/Hydrochloric acid (conc.), mobile phase V / RF, Acetone/Water/Hydrochloric acid (conc.), mobile phase V / RF, Methanol/Water/Hydrochloric acid (conc.), mobile phase V / RF, Dioxane/Water/Hydrochloric acid (conc.), mobile phase VI / RF, Acetone/Water/Hydrochloric acid (conc.), mobile phase VI / RF, Methanol/Water/Hydrochloric acid (conc.), mobile phase VI / RF, Acetone/Water/Hydrochloric acid (conc.), mobile phase VII / RF, Methanol/Water/Hydrochloric acid (conc.), mobile phase VII / RF, Acetone/Water/Hydrochloric acid (conc.), mobile phase VIII / RF, Methanol/Water/Hydrochloric acid (conc.), mobile phase VIII: RP-18 silica; for RF, Methanol/Water/Hydrochloric acid (conc.), mobile phase I: I = 90%MeOH/5%H2O/5%HCl; for RF, Dioxane/Water/Hydrochloric acid (conc.), mobile phase II: II = 80%Dioxane/15%H2O/5%HCl; for RF, Methanol/Water/Hydrochloric acid (conc.), mobile phase II: II = 85%MeOH/10%H2O/5%HCl; for RF, Acetone/Water/Hydrochloric acid (conc.), mobile phase III: III = 70%AC/25%H2O/5%HCl; for RF, Dioxane/Water/Hydrochloric acid (conc.), mobile phase III: III = 70%Dioxane/25%H2O/5%HCl; for RF, Methanol/Water/Hydrochloric acid (conc.), mobile phase III: III = 80%MeOH/15%H2O/5%HCl; for RF, Dioxane/Water/Hydrochloric acid (conc.), mobile phase IV: IV = 60%Dioxane/35%H2O/5%HCl; for RF, Acetone/Water/Hydrochloric acid (conc.), mobile phase IV: IV = 65%AC/30%H2O/5%HCl; for RF, Methanol/Water/Hydrochloric acid (conc.), mobile phase IV: IV = 75%MeOH/20%H2O/5%HCl; for RF, Acetone/Water/Hydrochloric acid (conc.), mobile phase IX: IX = 40%AC/55%H2O/5%HCl; for RF, Methanol/Water/Hydrochloric acid (conc.), mobile phase IX: IX = 50%MeOH/45%H2O/5%HCl; for RF, Dioxane/Water/Hydrochloric acid (conc.), mobile phase V: V = 50%Dioxane/45%H2O/5%HCl; for RF, Acetone/Water/Hydrochloric acid (conc.), mobile phase V: V = 60%AC/35%H2O/5%HCl; for RF, Methanol/Water/Hydrochloric acid (conc.), mobile phase V: V = 70%MeOH/25%H2O/5%HCl; for RF, Dioxane/Water/Hydrochloric acid (conc.), mobile phase VI: VI = 40%Dioxane/55%H2O/5%HCl; for RF, Acetone/Water/Hydrochloric acid (conc.), mobile phase VI: VI = 55%AC/40%H2O/5%HCl; for RF, Methanol/Water/Hydrochloric acid (conc.), mobile phase VI: VI = 65%MeOH/30%H2O/5%HCl; for RF, Acetone/Water/Hydrochloric acid (conc.), mobile phase VII: VII = 50%AC/45%H2O/5%HCl; for RF, Methanol/Water/Hydrochloric acid (conc.), mobile phase VII: VII = 60%MeOH/35%H2O/5%HCl; for RF, Acetone/Water/Hydrochloric acid (conc.), mobile phase VIII: VIII = 45%AC/50%H2O/5%HCl; for RF, Methanol/Water/Hydrochloric acid (conc.), mobile phase VIII: VIII = 55%MeOH/40%H2O/5%HCl
Experimental: Chromatographic determination of lipophilicity
Merck, Darmstadt, Germany). The mobile phase contained organic modifier (methanol, acetone or dioxane), water and hydrochloric acid.
Methanol was varied in the range […]
with an increment of 10%. […]
before chromatogram development. The solvent developing distance was 4.5 cm. Detection of […]
All experiments were performed at ambient temperature (22±2 °C). Retention parameters were calculated as previously described. […]

[3] = logarithm of Ki in µM, BChE, dependent variable of the QSAR model, read-out: Y Measured 2 log(ki)Bche, log (Ki/µM BChE) (converted)
[4] = ± standard error, 25 °C, ATCh substrate, read-out: Ki BChE
[5] = log (Ki/µM AChE), read-out: Y Measured 1 log(ki)Ache (converted)
[6] = ± standard error, 25 °C, ATCh substrate, read-out: Ki AChE
[7] = Acetone/Water/Hydrochloric acid (conc.)
[8] = Dioxane/Water/Hydrochloric acid (conc.)
[9] = Methanol/Water/Hydrochloric acid (conc.)

T2 sequence (P22303 32-614): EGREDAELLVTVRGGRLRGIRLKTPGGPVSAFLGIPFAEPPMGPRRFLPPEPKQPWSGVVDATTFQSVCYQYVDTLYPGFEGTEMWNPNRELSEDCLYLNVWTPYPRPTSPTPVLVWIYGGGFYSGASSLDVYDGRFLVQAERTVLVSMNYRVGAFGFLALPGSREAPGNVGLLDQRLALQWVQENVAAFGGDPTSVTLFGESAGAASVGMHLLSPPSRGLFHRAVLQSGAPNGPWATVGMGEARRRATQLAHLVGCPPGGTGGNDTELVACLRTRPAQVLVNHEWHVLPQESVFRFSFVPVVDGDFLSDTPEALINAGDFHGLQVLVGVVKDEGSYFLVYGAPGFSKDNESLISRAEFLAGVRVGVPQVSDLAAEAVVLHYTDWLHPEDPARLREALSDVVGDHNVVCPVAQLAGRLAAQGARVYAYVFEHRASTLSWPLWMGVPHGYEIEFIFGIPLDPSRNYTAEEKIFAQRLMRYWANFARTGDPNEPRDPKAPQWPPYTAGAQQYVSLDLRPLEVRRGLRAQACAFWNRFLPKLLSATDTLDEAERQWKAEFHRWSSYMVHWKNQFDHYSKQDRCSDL
T1 sequence (P06276 29-602): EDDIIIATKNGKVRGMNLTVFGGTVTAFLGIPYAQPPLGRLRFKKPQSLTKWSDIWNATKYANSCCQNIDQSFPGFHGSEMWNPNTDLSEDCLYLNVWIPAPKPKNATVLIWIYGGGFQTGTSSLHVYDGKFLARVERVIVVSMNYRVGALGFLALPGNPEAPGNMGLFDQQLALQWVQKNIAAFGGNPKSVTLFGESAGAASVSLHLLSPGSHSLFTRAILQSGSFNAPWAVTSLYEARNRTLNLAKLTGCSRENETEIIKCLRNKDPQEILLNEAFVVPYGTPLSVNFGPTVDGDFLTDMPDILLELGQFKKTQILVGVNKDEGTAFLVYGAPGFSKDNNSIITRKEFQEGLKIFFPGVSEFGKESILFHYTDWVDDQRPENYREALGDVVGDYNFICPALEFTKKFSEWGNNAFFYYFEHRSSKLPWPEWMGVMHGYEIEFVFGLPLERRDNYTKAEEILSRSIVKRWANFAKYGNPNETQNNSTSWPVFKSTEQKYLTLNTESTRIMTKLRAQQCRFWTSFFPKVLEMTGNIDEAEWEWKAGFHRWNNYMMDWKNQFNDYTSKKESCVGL

SMILES	Ki (purified human BChE; [3])	Ki (purified human BChE; [4])	IS (recombinant human AChE)	Ki (recombinant human AChE; [5])	Ki (recombinant human AChE; [6])	FRAP ([1]; 10 µM compound)	FRAP ([1]; 100 µM compound)	RM0 [2, 7]	b [2, 7]	RM0 [2, 8]	b [2, 8]	RM0 [2, 9]	b [2, 9]	RF, Methanol/Water/Hydrochloric acid (conc.), mobile phase I [2]	RF, Dioxane/Water/Hydrochloric acid (conc.), mobile phase II [2]	RF, Methanol/Water/Hydrochloric acid (conc.), mobile phase II [2]	RF, Acetone/Water/Hydrochloric acid (conc.), mobile phase III [2]	RF, Dioxane/Water/Hydrochloric acid (conc.), mobile phase III [2]	RF, Methanol/Water/Hydrochloric acid (conc.), mobile phase III [2]	RF, Dioxane/Water/Hydrochloric acid (conc.), mobile phase IV [2]	other results
FC(F)(F)c1ccc2c(NCCNCC34CC5CC(CC(C5)C3)C4)ccnc2c1 [Compound 6]	3.5 µM	3.5 ± 0.3 µM	2.9	1.2 µM	1.2 ± 0.1 µM	4.6 ± 0.8 µM	25 ± 6 µM	2.0143	3.169	0.9723	1.909	2.421	3.208	0.73	0.74	0.67	0.57	0.7	0.51	0.7	RF, Acetone/Water/Hydrochloric acid (conc.), mobile phase IV [2]: 0.53; RF, Methanol/Water/Hydrochloric acid (conc.), mobile phase IV [2]: 0.53; RF, Acetone/Water/Hydrochloric acid (conc.), mobile phase IX [2]: 0.11; RF, Methanol/Water/Hydrochloric acid (conc.), mobile phase IX [2]: 0.11; RF, Dioxane/Water/Hydrochloric acid (conc.), mobile phase V [2]: 0.49; RF, Acetone/Water/Hydrochloric acid (conc.), mobile phase V [2]: 0.45; RF, Methanol/Water/Hydrochloric acid (conc.), mobile phase V [2]: 0.44; RF, Dioxane/Water/Hydrochloric acid (conc.), mobile phase VI [2]: 0.33; RF, Acetone/Water/Hydrochloric acid (conc.), mobile phase VI [2]: 0.36; RF, Methanol/Water/Hydrochloric acid (conc.), mobile phase VI [2]: 0.39; RF, Acetone/Water/Hydrochloric acid (conc.), mobile phase VII [2]: 0.32; RF, Methanol/Water/Hydrochloric acid (conc.), mobile phase VII [2]: 0.23; RF, Acetone/Water/Hydrochloric acid (conc.), mobile phase VIII [2]: 0.24; RF, Methanol/Water/Hydrochloric acid (conc.), mobile phase VIII [2]: 0.18
FC(F)(F)c1ccc2c(NCCCNCC34CC5CC(CC(C5)C3)C4)ccnc2c1 [Compound 7]	2.6 µM	2.6 ± 0.2 µM	2.4	1.1 µM	1.1 µM	7.1 ± 2.1 µM	21 ± 7 µM	2.012	3.156	0.9445	1.874	2.606	3.427	0.73	0.74	0.67	0.57	0.7	0.51	0.7	RF, Acetone/Water/Hydrochloric acid (conc.), mobile phase IV [2]: 0.54; RF, Methanol/Water/Hydrochloric acid (conc.), mobile phase IV [2]: 0.51; RF, Acetone/Water/Hydrochloric acid (conc.), mobile phase IX [2]: 0.11; RF, Methanol/Water/Hydrochloric acid (conc.), mobile phase IX [2]: 0.09; RF, Dioxane/Water/Hydrochloric acid (conc.), mobile phase V [2]: 0.51; RF, Acetone/Water/Hydrochloric acid (conc.), mobile phase V [2]: 0.42; RF, Methanol/Water/Hydrochloric acid (conc.), mobile phase V [2]: 0.44; RF, Dioxane/Water/Hydrochloric acid (conc.), mobile phase VI [2]: 0.33; RF, Acetone/Water/Hydrochloric acid (conc.), mobile phase VI [2]: 0.36; RF, Methanol/Water/Hydrochloric acid (conc.), mobile phase VI [2]: 0.36; RF, Acetone/Water/Hydrochloric acid (conc.), mobile phase VII [2]: 0.32; RF, Methanol/Water/Hydrochloric acid (conc.), mobile phase VII [2]: 0.23; RF, Acetone/Water/Hydrochloric acid (conc.), mobile phase VIII [2]: 0.24; RF, Methanol/Water/Hydrochloric acid (conc.), mobile phase VIII [2]: 0.15
